For data set [1], the system named is HIV-1IIIB infected MT-4 cells. As to the kind of experiment: Anti-HIV activity, HIV-1IIIB infected MT-4 cells, MTT method (Test Example 1). The data set is classed as cell-based. The settings on record: Human immunodeficiency virus 1, MT4, 120 h, concentration required for inhibition of cell disorder due to HIV infection by 50%, MOI 0.01, 5 days. Here is the method: Immediately after infection, HIV-1IIIB infected MT-4 cells (3.0×10^4/well, MOI (Multiplicity of infection): 0.01) were added to a 96-well microtiter plate together with the test compounds having different concentrations. The cells were cultured in a carbon dioxide incubator at 37° C. for 5 days, and the number of living cells was measured in accordance with the MTT (tetrazolium) method ([…], et al., J. of Virol. Method, 20, 309-321 […]). The antiviral activity is represented by the concentration required for inhibition of cell disorder due to HIV infection by 50% (EC50: 50% Effective Concentration) (μM), and the results are shown in Table 2.

The target of another data set is T1, CXCR4 (Homo sapiens, UniProt P61073).
T1 construct: endogenous in cells; host or cells: MT-4 cells
Nature of the data set: Inhibition of 125I-SDF-1α binding to receptors CXCR4 on MT-4 cells (Test Example 2). The settings on record: binding-inhibition % at 0.01 μM, 2 hours under ice-cooling, read-out: Inhibition rate (%). Here is the method:
MT-4 cells (5×10^6/0.2 ml/well) were cultured on a 24-well microtiter plate. After the cells were incubated for 24 hours at 37° C. in a carbon dioxide gas incubator, a culture medium was replaced with a buffer solution (0.1% BSA-containing RPMI-1640). Together with a ligand ^125I-SDF-1α (specific activity: 2,200 Ci/mmol; available from Daiichi Pure Chemicals Co., Ltd. (Tokyo)), test materials with various concentrations were subjected to a binding reaction for 2 hours under ice-cooling. […] Then, a rate of inhibition of the binding between radioactive ligands and receptors CXCR4 by a test material was calculated (a binding-inhibition % at 0.01 μM).

Another data set relates to SD mice. Nature of the data set: Acute toxicity, single transvenous administration (Test Example 3). The data set is classed as in vivo. The settings on record: 6-week-old male SD mice, 2.5 mg/kg transvenously once in physiological saline. Here is the method:
The aforementioned compound was examined for acute toxicity. Specifically, 6-week-old SD mice (male) were divided into several groups (2 to 3 mice in each group). Subsequently, each of the compounds of Examples was dissolved in a physiological saline solution, and the solution was transvenously administered to the mice (dose: 2.5 mg/kg) once. Then, the number of dead mice was counted.

T1 sequence (P61073 whole entry): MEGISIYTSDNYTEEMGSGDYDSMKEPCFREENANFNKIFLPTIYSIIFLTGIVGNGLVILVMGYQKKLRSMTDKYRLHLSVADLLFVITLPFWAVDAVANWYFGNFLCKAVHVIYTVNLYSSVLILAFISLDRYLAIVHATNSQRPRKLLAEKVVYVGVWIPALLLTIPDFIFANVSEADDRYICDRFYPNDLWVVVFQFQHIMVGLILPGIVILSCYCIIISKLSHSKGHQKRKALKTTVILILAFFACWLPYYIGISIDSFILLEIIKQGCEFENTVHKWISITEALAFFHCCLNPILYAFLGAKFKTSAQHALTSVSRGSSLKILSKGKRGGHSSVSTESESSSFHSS

The molecule `CCCN(CCC)CCCCN(Cc1ccc(CN(Cc2ncc[nH]2)C2CCCc3cccnc32)cc1)S(C)(=O)=O` (stereo not drawn) [Compound No. 50, N-(4-dipropylamino-butyl)-N-(4-{[(1H-imidazol-2-ylmethyl)-(5,6,7,8-tetrahydro-quinolin-8-yl)-amino]-methyl}-benzyl)-methanesulfonamide] came in with an EC50 in data set [1] of 401 nM. In addition, the inhibition at 0.01 µM on CXCR4 stood at 53.4%. Moreover, the Dead mice/test mice in the data set with SD mice is 0/3.
On to `CCCN(CCC)CCCCN(CC(=O)OCC)Cc1ccc(CN(Cc2ncc[nH]2)Cc2ncc[nH]2)cc1` [Compound No. 97, [(4-[[bis-(1H-imidazol-2-ylmethyl)-amino]-methyl]-benzyl)-(4-dipropylamino-butyl)-amino]-acetic acid ethyl ester], for which the EC50 in data set [1] was determined as 1 nM. The inhibition at 0.01 µM at CXCR4 turned out to be 85.6%. In addition, in the data set on SD mice, the Dead mice/test mice is 0/3.
Taken in the same sequence, the figures for `CCCN(CCC)CCCCN(CCC(=O)OC)Cc1ccc(CN(Cc2ncc[nH]2)Cc2nccn2C)cc1` [Compound No. 34, 3-[(4-dipropylamino-butyl)-(4-{[(1H-imidazol-2-ylmethyl)-(1-methyl-1H-imidazol-2-ylmethyl)-amino]-methyl}-benzyl)-amino]-propionic acid methyl ester] were 3 nM, 85.5% and 0/3.
Take `CCCN(CCC)CCCCN(CCC(=O)O)Cc1ccc(CN(Cc2ncc[nH]2)Cc2nccn2C)cc1` [Compound No. 51, 3-[(4-dipropylamino-butyl)-(4-{[(1H-imidazol-2-ylmethyl)-(1-methyl-1H-imidazol-2-ylmethyl)-amino]-methyl}-benzyl)-amino]-propionic acid]: in data set [1], a half-maximal effect (EC50) was put at 2 nM. In addition, the inhibition at 0.01 µM on CXCR4 was 85.8%. Moreover, in the data set on SD mice, the Dead mice/test mice is recorded as 0/3.
In turn, `CCCN(CCC)CCCCN(Cc1ccc(CN(Cc2ncc[nH]2)Cc2nccn2C)cc1)c1ccccc1` [Compound No. 24, N-(4-{[(1H-imidazol-2-ylmethyl)-(1-methyl-1H-imidazol-2-ylmethyl)-amino]-methyl}-benzyl)-N-phenyl-N′,N′-dipropyl-butane-1,4-diamine] registered an EC50 in data set [1] of 95 nM. The inhibition at 0.01 µM at CXCR4 is 50.1%. In addition, the Dead mice/test mice with SD mice is recorded as 0/3.
Taken in the same sequence, the figures for `CCCN(CCC)CCCCc1nc2ccc(CN(Cc3ncc[nH]3)Cc3nccn3C)cc2n1CCC` [Compound No. 4, [4-(6-{[(1H-imidazol-2-ylmethyl)-(1-methyl-1H-imidazol-2-ylmethyl)-amino]-methyl}-1-propyl-1H-benzimidazol-2-yl)-butyl]-dipropyl-amine] were 3 nM, 94.9% and 0/3.
For the molecule `CCCN(CCC)CCCC1NC(=O)c2ccc(CN(Cc3ncc[nH]3)Cc3nccn3C)cc2NC1=O` (stereo not drawn) [Compound No. 14, 3-(3-dipropylaminopropyl)-8-{[(1H-imidazol-2-ylmethyl)-(1-methyl-1H-imidazol-2-ylmethyl)-amino]-methyl}-3,4-dihydro-1H-benzo[e][1,4]diazepin-2,5-dione], it took 6 nM to reach a half-maximal effect in data set [1] (EC50). Further, the inhibition at 0.01 µM on CXCR4 was found to be 32.9%. Also, the Dead mice/test mice with SD mice was 0/3.
With `CCCN(CCC)CCCCNC(=O)c1cn2cc(CN(Cc3ncc[nH]3)Cc3nccn3C)ccc2n1` [Compound No. 30], in data set [1], the response was half-maximal at 92 nM (EC50). Besides, the inhibition at 0.01 µM at CXCR4 turned out to be 46%. Besides, the Dead mice/test mice in the data set with SD mice is recorded as 0/3.
On to `CCCN(CCC)CCCCN(CCC#N)Cc1ccc(CN(Cc2ncc[nH]2)Cc2nccn2C)cc1` [Compound No. 33, 3-[(4-dipropylamino-butyl)-(4-{[(1H-imidazol-2-ylmethyl)-(1-methyl-1H-imidazol-2-ylmethyl)-amino]-methyl}-benzyl)-amino]-propionitrile], for which, in data set [1], the EC50 was found to be 3 nM. Moreover, at CXCR4, the inhibition at 0.01 µM is 85.2%. Further, in the data set with SD mice, the Dead mice/test mice was 0/3.
Molecule `CCCN(CCC)CCCCN(Cc1ccc(CN(Cc2ncc[nH]2)Cc2nccn2C)cc1)C(=O)C(F)(F)F` [Compound No. 37, N-(4-dipropylamino-butyl)-2,2,2-trifluoro-N-(4-{[(1H-imidazol-2-ylmethyl)-(1-methyl-1H-imidazol-2-ylmethyl)-amino]-methyl}-benzyl)-acetamide] returned an EC50 in data set [1] of 3 nM. Also, the inhibition at 0.01 µM at CXCR4 is 92.3%. Also, the Dead mice/test mice in the data set with SD mice is recorded as 0/3.
`CCCN(CCC)CCCCc1nc2ccc(CN(Cc3ncc[nH]3)Cc3nccn3C)cc2n1C(C)C` [Compound No. 47, [4-(6-{[(1H-imidazol-2-ylmethyl)-(1-methyl-1H-imidazol-2-ylmethyl)-amino]-methyl}-1-isopropyl-1H-benzimidazol-2-yl)-butyl]-dipropyl-amine] had an EC50 in data set [1] of 2 nM. The inhibition at 0.01 µM on CXCR4 is 86.2%. In addition, the Dead mice/test mice with SD mice was 0/3.
Taken in the same sequence, the figures for `CCCN(CCC)CCCCN(CC(=O)OC)Cc1ccc(CN(Cc2ncc[nH]2)Cc2nccn2C)cc1` [Compound No. 83, [(4-dipropylamino-butyl)-(4-[[(1H-imidazol-2-ylmethyl)-(1-methyl-1H-imidazol-2-ylmethyl)-amino]-methyl]-benzyl)-amino]-acetic acid methyl ester] were 3 nM, 79.7% and 0/3.
Turning to `CCCN(CCC)CCCCN(Cc1ccc(CN(Cc2ncc[nH]2)Cc2nccn2C)cc1)S(C)(=O)=O` [Compound No. 21, N-(4-dipropylamino-butyl)-N-(4-{[(1H-imidazol-2-ylmethyl)-(1-methyl-1H-imidazol-2-ylmethyl)-amino]-methyl}-benzyl)-methanesulfonamide], the half-maximal effective concentration (EC50) in data set [1] amounted to 46 nM. Besides, the inhibition at 0.01 µM on CXCR4 came to 59.2%. The Dead mice/test mice in the data set with SD mice was 0/3.
In turn, `CCCN(CCC)CCCCN(CC#N)Cc1ccc(CN(Cc2ncc[nH]2)Cc2nccn2C)cc1` [Compound No. 82, [(4-dipropylamino-butyl)-(4-[[(1H-imidazol-2-ylmethyl)-(1-methyl-1H-imidazol-2-ylmethyl)-amino]-methyl]-benzyl)-amino]-acetonitrile] returned a concentration giving a half-maximal response (EC50) in data set [1] of 3 nM. The inhibition at 0.01 µM on CXCR4 stood at 82.3%. In addition, the Dead mice/test mice in the data set on SD mice was 0/3.
In the case of `CCCN(CCC)CCCCc1nc2ccc(CN(Cc3ncc[nH]3)Cc3ncc[nH]3)cc2n1CCC` [Compound No. 3, [4-(6-{[bis-(1H-imidazol-2-ylmethyl)-amino]-methyl}-1-propyl-1H-benzimidazol-2-yl)-butyl]-dipropyl-amine], in data set [1], the EC50 came out at 3 nM. The inhibition at 0.01 µM at CXCR4 was 71.4%. For the same molecule, the Dead mice/test mice with SD mice is 0/3.
As for `CCCN(CCC)CCCCN(CC)Cc1ccc(CN(Cc2ncc[nH]2)Cc2nccn2C)cc1` [Compound No. 23, N-ethyl-N-(4-{[(1H-imidazol-2-ylmethyl)-(1-methyl-1H-imidazol-2-ylmethyl)-amino]-methyl}-benzyl)-N′,N′-dipropyl-butane-1,4-diamine], in data set [1], the EC50 stood at 3 nM. Besides, the inhibition at 0.01 µM at CXCR4 worked out at 78.2%. For the same molecule, the Dead mice/test mice with SD mice is 0/3.
Turning to `CN(CCCCN1CCCCC1)Cc1ccc(CN(Cc2ncc[nH]2)Cc2nccn2C)cc1` [Compound No. 44, (4-{[(1H-imidazol-2-ylmethyl)-(1-methyl-1H-imidazol-2-ylmethyl)-amino]-methyl}-benzyl)-methyl-(4-piperidin-1-ylbutyl)amine], in data set [1], a half-maximal response (EC50) required 2 nM. The inhibition at 0.01 µM at CXCR4 came to 81.6%. Besides, in the data set with SD mice, the Dead mice/test mice is 0/3.
Taken in the same sequence, the figures for `CCCN(CCC)CCCCc1nc2ccc(CN(Cc3ncc[nH]3)Cc3nccn3C)cc2n1C` [Compound No. 13, [4-(6-{[(1H-imidazol-2-ylmethyl)-(1-methyl-1H-imidazol-2-ylmethyl)-amino]-methyl}-1-methyl-1H-benzimidazol-2-yl)-butyl]-dipropyl-amine] were 3 nM, 75.5% and 0/3.
In data set [1], `CCCN(CCC)CCCCN(CC(=O)O)Cc1ccc(CN(Cc2ncc[nH]2)Cc2ncc[nH]2)cc1` [Compound No. 88, [(4-[[bis-(1H-imidazol-2-ylmethyl)-amino]-methyl]-benzyl)-(4-dipropylamino-butyl)-amino]-acetic acid] displayed a half-maximal effective concentration (EC50) of 2 nM. At CXCR4, the inhibition at 0.01 µM was 85%. Also, the Dead mice/test mice in the data set on SD mice was 0/3.
In data set [1], `CCCN(CCC)CCCCN(C)C(=O)Nc1ccc(CN(Cc2ncc[nH]2)Cc2nccn2C)cc1` [Compound No. 26, 1-(4-dipropylamino-butyl)-3-(4-{[(1H-imidazol-2-ylmethyl)-(1-methyl-1H-imidazol-2-ylmethyl)-amino]-methyl}-phenyl)-1-methyl-urea] had an EC50 of 73 nM. Also, the inhibition at 0.01 µM on CXCR4 is 57.3%. Moreover, the Dead mice/test mice in the data set on SD mice was 0/3.
